Laboratory results as given in patent publication US12404250B2, “PARP inhibitors for treating cancer and asthma” (Oregon Health & Science University, priority 2018, dated 2025).

How the values were obtained:
[1] = biological target: PARP 1 (Homo sapiens, UniProt P09874); experiment: In vitro IC50, PARP1; format: biochemical; details: SEM from a minimum of three dose-response experiments
[2] = biological target: PARP 2 (Homo sapiens, UniProt Q9UGN5); experiment: In vitro IC50, PARP2; format: biochemical; details: SEM from a minimum of three dose-response experiments
[3] = biological target: T1, PARP16 (Homo sapiens, UniProt Q8N5Y8); experiment: In vitro IC50, immunoprecipitated GFP-PARP16 auto-MARylation; format: biochemical
T1 construct: expressed in transfected cells; host or cells: HEK 293T
T1 sequence (Q8N5Y8 1-322): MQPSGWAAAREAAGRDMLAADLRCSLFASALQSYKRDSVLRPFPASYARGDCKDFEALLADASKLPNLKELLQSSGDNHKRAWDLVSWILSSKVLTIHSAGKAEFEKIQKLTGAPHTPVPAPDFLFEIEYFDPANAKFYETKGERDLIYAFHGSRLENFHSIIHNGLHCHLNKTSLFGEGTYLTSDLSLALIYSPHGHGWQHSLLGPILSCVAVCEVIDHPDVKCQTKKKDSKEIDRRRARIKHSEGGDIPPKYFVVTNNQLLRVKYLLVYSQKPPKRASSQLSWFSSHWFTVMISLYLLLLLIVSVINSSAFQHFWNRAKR
Protocol: Auto-MARylation was analyzed by Western blot with an ADP-ribose (ADPr) binding reagent (uncropped blots shown below).

[4] = biological target: T2, PARP1/2 (Homo sapiens, UniProt P09874); experiment: H2O2-stimulated PARP1/2 activity in HEK 293T cells (Western blot); format: cell-based; details: H2O2 500 μM for 15 min, Western blot with ADPr binding reagent
T2 construct: expressed in transfected cells; host or cells: HEK 293T
Protocol: Lysates were prepared and PAR/MARylation was analyzed by Western blot with an ADP-ribose (ADPr) binding reagent. Blot was also probed with antibodies for GFP and actin. The band of interest represents auto-PARylated GFP-PARP1. […] Lysates were prepared and PAR/MARylation was analyzed by Western blot with an ADP-ribose (ADPr) binding reagent. Blot was also probed with antibodies for GFP and actin.
Lysates were prepared and PAR/MARylation was analyzed by Western blot with an ADP-ribose (ADPr) binding reagent. Blot was also probed with antibodies for GFP and actin. The band of interest represents auto-PARylated GFP-PARP1.

[5] = biological target: T3, GFP-PARP11 (Homo sapiens, UniProt Q9NR21); experiment: GFP-PARP11 localization at the nuclear envelope in HeLa cells; format: cell-based; details: HeLa cells transfected with GFP-PARP11, 1 μM for 1 or 18 h
T3 construct: expressed in transfected cells; host or cells: HeLa
T3 sequence (Q9NR21 1-338): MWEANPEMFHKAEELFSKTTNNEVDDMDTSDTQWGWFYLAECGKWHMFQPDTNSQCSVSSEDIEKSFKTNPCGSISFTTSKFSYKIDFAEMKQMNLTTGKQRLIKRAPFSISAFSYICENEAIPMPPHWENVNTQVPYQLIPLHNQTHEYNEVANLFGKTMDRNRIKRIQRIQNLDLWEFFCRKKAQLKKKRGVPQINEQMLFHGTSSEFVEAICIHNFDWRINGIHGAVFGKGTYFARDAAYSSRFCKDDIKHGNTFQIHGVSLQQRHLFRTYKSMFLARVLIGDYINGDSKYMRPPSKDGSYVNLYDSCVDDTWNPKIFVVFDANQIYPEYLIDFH
Protocol: FIGS. 5A and 5B depict dissociation from the nuclear envelope in HeLa cells following ITK7 (Example 7) treatment. […] HeLa cells were transfected with GFP-PARP11 grown on glass cover-slips. After ITK7 (1 μM) treatment for 1 or 18 h cells were fixed and mounted using mounting medium containing DAPI. Images were taken on the Olympus FLUOVIEW™ 2000 microscope using an 60x/NA 1.40 oil objective (scale bar 10 μm).
HeLa cells were transfected with GFP-PARP11 grown on glass cover-slips. After ITK7 (1 μM) treatment for 1 or 18 h cells were fixed and mounted using mounting medium containing DAPI. Images were taken on the Olympus FLUOVIEW™ 2000 microscope using an 60x/NA 1.40 oil objective (scale bar 10 μm).

Sequence of PARP 2 (Q9UGN5 whole entry): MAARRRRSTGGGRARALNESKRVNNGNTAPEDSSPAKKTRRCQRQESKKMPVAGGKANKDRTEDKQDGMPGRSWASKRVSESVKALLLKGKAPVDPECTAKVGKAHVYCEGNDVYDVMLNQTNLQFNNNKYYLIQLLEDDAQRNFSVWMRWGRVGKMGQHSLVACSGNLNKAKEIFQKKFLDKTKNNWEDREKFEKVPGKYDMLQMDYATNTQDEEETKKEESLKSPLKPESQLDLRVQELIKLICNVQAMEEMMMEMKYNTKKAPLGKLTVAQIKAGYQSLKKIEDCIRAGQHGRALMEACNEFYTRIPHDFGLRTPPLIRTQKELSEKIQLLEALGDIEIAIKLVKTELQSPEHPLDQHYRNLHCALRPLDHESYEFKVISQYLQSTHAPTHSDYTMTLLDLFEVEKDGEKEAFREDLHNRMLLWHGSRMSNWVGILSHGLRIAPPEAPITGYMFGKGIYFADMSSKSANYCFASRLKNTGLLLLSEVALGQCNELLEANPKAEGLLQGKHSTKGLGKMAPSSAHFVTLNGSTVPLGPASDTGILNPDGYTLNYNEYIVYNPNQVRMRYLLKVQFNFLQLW
Sequence of PARP 1 (P09874 whole entry): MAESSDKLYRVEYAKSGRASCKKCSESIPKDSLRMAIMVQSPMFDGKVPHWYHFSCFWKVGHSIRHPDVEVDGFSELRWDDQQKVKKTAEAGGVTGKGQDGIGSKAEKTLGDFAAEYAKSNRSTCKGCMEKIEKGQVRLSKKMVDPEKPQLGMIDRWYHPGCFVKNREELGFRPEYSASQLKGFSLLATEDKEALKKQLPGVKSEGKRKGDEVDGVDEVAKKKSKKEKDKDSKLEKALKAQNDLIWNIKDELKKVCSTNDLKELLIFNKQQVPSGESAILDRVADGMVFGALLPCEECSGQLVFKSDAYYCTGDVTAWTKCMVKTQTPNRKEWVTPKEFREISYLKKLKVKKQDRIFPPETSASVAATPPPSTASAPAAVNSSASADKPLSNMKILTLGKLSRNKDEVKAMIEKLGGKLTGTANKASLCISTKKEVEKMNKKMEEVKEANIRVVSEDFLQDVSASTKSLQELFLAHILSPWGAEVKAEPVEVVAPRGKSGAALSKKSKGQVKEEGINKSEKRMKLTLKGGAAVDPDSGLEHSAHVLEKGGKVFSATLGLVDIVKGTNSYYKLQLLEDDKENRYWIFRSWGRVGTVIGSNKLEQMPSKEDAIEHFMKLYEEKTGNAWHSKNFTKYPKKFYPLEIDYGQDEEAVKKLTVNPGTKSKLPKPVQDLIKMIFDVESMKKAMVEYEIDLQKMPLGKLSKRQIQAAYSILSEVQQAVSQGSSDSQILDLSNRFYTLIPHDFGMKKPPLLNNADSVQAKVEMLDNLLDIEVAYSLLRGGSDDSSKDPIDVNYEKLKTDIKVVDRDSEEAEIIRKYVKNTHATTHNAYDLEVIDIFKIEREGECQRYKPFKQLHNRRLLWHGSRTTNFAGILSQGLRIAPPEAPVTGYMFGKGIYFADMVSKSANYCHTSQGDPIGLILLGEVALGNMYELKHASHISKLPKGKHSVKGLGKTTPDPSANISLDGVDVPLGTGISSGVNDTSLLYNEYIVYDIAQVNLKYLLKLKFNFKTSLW
T2 sequence (P09874 2-1014): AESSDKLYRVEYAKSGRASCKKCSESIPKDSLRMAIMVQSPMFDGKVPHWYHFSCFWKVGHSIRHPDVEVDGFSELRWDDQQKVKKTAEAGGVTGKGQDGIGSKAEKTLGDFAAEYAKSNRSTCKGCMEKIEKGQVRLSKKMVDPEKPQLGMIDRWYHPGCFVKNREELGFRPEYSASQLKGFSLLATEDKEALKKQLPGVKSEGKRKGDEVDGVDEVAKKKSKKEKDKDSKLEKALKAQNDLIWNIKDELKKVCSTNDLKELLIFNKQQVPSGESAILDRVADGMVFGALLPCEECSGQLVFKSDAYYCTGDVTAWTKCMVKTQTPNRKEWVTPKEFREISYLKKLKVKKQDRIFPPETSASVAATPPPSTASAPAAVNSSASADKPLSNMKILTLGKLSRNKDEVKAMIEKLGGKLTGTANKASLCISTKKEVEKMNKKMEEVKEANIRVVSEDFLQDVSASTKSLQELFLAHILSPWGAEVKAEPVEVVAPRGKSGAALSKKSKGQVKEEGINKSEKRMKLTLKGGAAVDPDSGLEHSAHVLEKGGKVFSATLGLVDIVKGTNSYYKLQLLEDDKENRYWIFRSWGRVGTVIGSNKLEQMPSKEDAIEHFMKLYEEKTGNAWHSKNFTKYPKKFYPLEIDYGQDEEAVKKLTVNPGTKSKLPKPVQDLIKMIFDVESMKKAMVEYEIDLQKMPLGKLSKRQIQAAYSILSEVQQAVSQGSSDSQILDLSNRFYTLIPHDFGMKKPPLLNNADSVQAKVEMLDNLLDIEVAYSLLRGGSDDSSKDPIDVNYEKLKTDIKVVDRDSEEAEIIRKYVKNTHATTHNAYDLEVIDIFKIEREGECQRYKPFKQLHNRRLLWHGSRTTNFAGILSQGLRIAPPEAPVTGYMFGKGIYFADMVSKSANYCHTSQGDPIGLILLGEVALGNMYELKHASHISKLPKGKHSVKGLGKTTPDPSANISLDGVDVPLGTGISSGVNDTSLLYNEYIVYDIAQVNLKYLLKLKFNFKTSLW

CC#Cc1ccc2c(=O)[nH]c(CSc3ncccn3)nc2c1C [ITK7, 8-methyl-7-(prop-1-yn-1-yl)-2-((pyrimidin-2-ylthio)methyl)quinazolin-4(3H)-one]
IC50 [1]: > 30 µM | IC50 [2]: > 30 µM | IC50 [3]: > 3 µM | Inhibition of H2O2-mediated PARP1 PARylation (PARP½ activity) in cells [4]: has no effect | Dissociation of GFP-PARP11 from the nuclear envelope [5]: causes GFP-PARP11 to dissociate from the nuclear envelope
